Test results reported in patent US20210283073A1, “AGENT FOR INHIBITING RECURRENCE OF HEM[…] PATIENTS WHO HAVE UNDERGONE HEMATOPOIETIC STEM CELL TRANSPLANTATION” (Priothera Limited, priority 2018, published 2021).
Where two headings read alike, the source gives them in different places.

System: patients who have undergone hematopoietic stem cell transplantation for the treatment of hematological malignancies
Conditions: for number of days of recurrence of hematological malignancies / number of days of death: days from allogeneic HSCT; for Recurrence rate / Survival rate: one year after allogeneic HSCT
Experimental: The clinical tests were performed as described below
The following four types of immunosuppressants were used in the clinical tests. • 2-Amino-2-[4-(3-benzyloxyphenylthio)-2-chlorophenyl] ethyl-propane-1,3-diol hydrochloride (prepared as capsules containing 0.5, 1, 2, 3, 4, or 5 mg in terms of 2-amino-2-[4-(3-benzyloxyphenylthio)-2-chlorophenyl] ethyl-propane-1,3-diol)) • Methotrexate • Cyclosporin A • Tacrolimus
23 patients participated in the clinical tests.
The clinical tests was carried out according to the following schedule. However, changes were made appropriately depending on the condition of the patient and the like.
A: Screening (from the −50th day to the −2nd day), Baseline (the −1st day)
B: Treatment with 2-amino-2-[4-(3-benzyloxyphenylthio)-2-chlorophenyl] ethyl-propane-1,3-diol hydrochloride (from the 1st day to the 111th day)
B′: Treatment with other immunosuppressants (according to hospital standards, and the like)
C: Conditioning regimen (from the 2nd day to the 10th day)
D: Allogeneic hematopoietic stem cell transplantation (the 11th day)
E: Follow-up (from the 12th day to the 376th day), additional follow-up (from the 377th day)
A predetermined amount of 2-amino-2-[4-(3-benzyloxyphenylthio)-2-chlorophenyl] ethyl-propane-1,3-diol hydrochloride was administered to the patients once a day, as well as, other immunosuppressants were administered to the patients on a dosing schedule and dosage according to the hospital standards and the like. The daily dosage of 2-amino-2-[4-(3-benzyloxyphenylthio)-2-chlorophenyl] ethyl-propane-1,3-diol hydrochloride administered to each patient (value in terms of 2-amino-2-[4-(3-benzyloxyphenylthio)-2-chlorophenyl] ethyl-propane-1,3-diol, the same is applied to the descriptions hereinafter), the administration period of time, and the types of the other immunosuppressants are shown in Table 2 (KRP: 2-amino-2-[4-(3-benzyloxyphenylthio)-2-chlorophenyl] ethyl-propane-1,3-diol hydrochloride, MTX: methotrexate, CyA: cyclosporin A, and Tac: tacrolimus).
The conditions of patients who underwent allogeneic hematopoietic stem cell transplantation were subjected to following up for a certain period of time. In the table, the follow-up period, the number of days of recurrence of hematological malignancies and the number of days of death represent the number of days passing from the day when allogeneic hematopoietic stem cell transplantation was performed. The survival rate and recurrence rate were calculated in accordance with the Kaplan-Meier method.

[1] = Patient No. 1, Multiple myeloma, KRP 3 mg + MTX + CyA, KRP 34 days, follow-up 749 days
[2] = Patient No. 2, Acute lymphocytic leukemia, KRP 3 mg + MTX + CyA, KRP 108 days, follow-up 731 days
[3] = Patient No. 3, Acute lymphocytic leukemia, KRP 3 mg + MTX + CyA, KRP 107 days, follow-up 734 days
[4] = Patient No. 4, Myelodysplasia syndrome, KRP 3 mg + MTX + CyA, KRP 35 days, follow-up 532 days
[5] = Patient No. 4, Myelodysplasia syndrome, KRP 3 mg + MTX + CyA, KRP 35 days
[6] = Patient No. 5, B-cell lymphoma, KRP 3 mg + MTX + CyA, KRP 111 days, follow-up 819 days
[7] = Patient No. 6, Acute myeloid leukemia, KRP 3 mg + MTX + CyA, KRP 107 days, follow-up 347 days
[8] = Patient No. 7, Acute lymphocytic leukemia, KRP 3 mg + MTX + CyA, KRP 98 days, follow-up 727 days
[9] = Patient No. 8, Myelodysplasia syndrome, KRP 3 mg + MTX + CyA, KRP 111 days, follow-up 704 days
[10] = Patient No. 9, Acute myeloid leukemia, KRP 3 mg + MTX + CyA, KRP 86 days, follow-up 728 days
[11] = Patient No. 10, Acute myeloid leukemia, KRP 3 mg + MTX + CyA, KRP 111 days, follow-up 876 days
[12] = Patient No. 10, Acute myeloid leukemia, KRP 3 mg + MTX + CyA, KRP 111 days
[13] = Patient No. 11, Chronic myeloid leukemia, KRP 1 mg + MTX + CyA, KRP 111 days, follow-up 617 days
[14] = Patient No. 12, Myelodysplasia syndrome, KRP 3 mg + MTX + Tac, KRP 79 days, follow-up 110 days
[15] = Patient No. 12, Myelodysplasia syndrome, KRP 3 mg + MTX + Tac, KRP 79 days
[16] = Patient No. 13, Acute lymphocytic leukemia, KRP 1 mg + MTX + CyA, KRP 43 days, follow-up 326 days
[17] = Patient No. 13, Acute lymphocytic leukemia, KRP 1 mg + MTX + CyA, KRP 43 days
[18] = Patient No. 14, Acute myeloid leukemia, KRP 1 mg + MTX + CyA, KRP 111 days, follow-up 669 days
[19] = Patient No. 15, Chronic myeloid leukemia, KRP 3 mg + MTX + Tac, KRP 111 days, follow-up 554 days
[20] = Patient No. 16, Acute myeloid leukemia, KRP 3 mg + MTX + Tac, KRP 117 days, follow-up 375 days
[21] = Patient No. 17, Acute myeloid leukemia, KRP 3 mg + MTX + Tac, KRP 111 days, follow-up 246 days
[22] = Patient No. 18, Myelofibrosis, KRP 3 mg + MTX + Tac, KRP 111 days, follow-up 310 days
[23] = Patient No. 18, Myelofibrosis, KRP 3 mg + MTX + Tac, KRP 111 days
[24] = Patient No. 19, Acute myeloid leukemia, KRP 1 mg + MTX + CyA, KRP 24 days, follow-up 99 days
[25] = Patient No. 20, Chronic myeloid leukemia, KRP 1 mg + MTX + CyA, KRP 111 days, follow-up 193 days
[26] = Patient No. 21, Non-hodgkin lymphoma/Hodgkin disease, KRP 3 mg + MTX + Tac, KRP 62 days, follow-up 79 days
[27] = Patient No. 21, Non-hodgkin lymphoma/Hodgkin disease, KRP 3 mg + MTX + Tac, KRP 62 days
[28] = Patient No. 22, Non-hodgkin lymphoma/Hodgkin disease, KRP 3 mg + MTX + Tac, KRP 107 days, follow-up 264 days
[29] = Patient No. 22, Non-hodgkin lymphoma/Hodgkin disease, KRP 3 mg + MTX + Tac, KRP 107 days
[30] = Patient No. 23, Chronic myeloid leukemia, KRP 1 mg + MTX + CyA, KRP 111 days, follow-up 264 days
[31] = all 23 patients, KRP 1 or 3 mg/day + MTX + CyA or Tac, Kaplan-Meier
[32] = Chronic myeloid leukemia, 4 patients
[33] = KRP 1 mg + MTX + CyA, 6 patients
[34] = KRP 3 mg + MTX + CyA, 10 patients, hydrochloride
[35] = KRP 3 mg + MTX + CyA, 10 patients, listed as 2-amino-2-[4-(3-benzyloxyphenylthio)-2-chlorophenyl] ethyl-propane-1,3-diol, hydrochloride
[36] = KRP 3 mg + MTX + Tac, 7 patients
[37] = Myelodysplasia syndrome, 3 patients
[38] = Non-hodgkin lymphoma/Hodgkin disease, 2 patients
[39] = administration period 80 days or more, 17 patients, hydrochloride
[40] = administration period 80 days or more, 17 patients, listed as 2-amino-2-[4-(3-benzyloxyphenylthio)-2-chlorophenyl] ethyl-propane-1,3-diol, hydrochloride
[41] = administration period 100 days or more, 15 patients, hydrochloride
[42] = administration period 100 days or more, 15 patients, listed as 2-amino-2-[4-(3-benzyloxyphenylthio)-2-chlorophenyl] ethyl-propane-1,3-diol, hydrochloride

In the case of `Cl.NC(CO)(CO)CCc1ccc(Sc2cccc(OCc3ccccc3)c2)cc1Cl` [KRP, 2-amino-2-[4-(3-benzyloxyphenylthio)-2-chlorophenyl] ethyl-propane-1,3-diol hydrochloride], the Alive/dead [1] is reported as “Alive”, the “Yes/No of recurrence of hematological malignancy” value [1] is reported as “Yes” and the “number of days of recurrence of hematological malignancies” value (from here on “number … of hematological malignancies”) (Patient No. 1, Multiple myeloma, KRP 3 mg + MTX + CyA, KRP 34 days) is reported as “(749th day)”. For the same compound, the Alive/dead [2] was “Alive”, the “Yes/No of recurrence of hematological malignancy” value [2] was “No” and the Alive/dead [3] was “Alive”. The “Yes/No of recurrence of hematological malignancy” value [3] was “No”, the Alive/dead [4] was “Dead” and the “Yes/No of recurrence of hematological malignancy” value [4] was “Yes”. The “number of days of death” value [5] was “(532nd day)”, the “number … of hematological malignancies” value [5] was “(287th day)” and the Alive/dead [6] was “Alive”. For the same compound, the “Yes/No of recurrence of hematological malignancy” value [6] was “No”, the Alive/dead [7] was “Alive” and the “Yes/No of recurrence of hematological malignancy” value [7] was “No”. For the same compound, the Alive/dead [8] was “Alive”, the “Yes/No of recurrence of hematological malignancy” value [8] was “No” and the Alive/dead [9] was “Alive”. The “Yes/No of recurrence of hematological malignancy” value [9] was “No”, the Alive/dead [10] was “Alive” and the “Yes/No of recurrence of hematological malignancy” value [10] was “Yes”. For the same compound, the “number … of hematological malignancies” value (Patient No. 9, Acute myeloid leukemia, KRP 3 mg + MTX + CyA, KRP 86 days) was “(102nd day)”, the Alive/dead [11] was “Dead” and the “Yes/No of recurrence of hematological malignancy” value [11] was “Yes”. For the same compound, the “number of days of death” value [12] was “(876th day)”, the “number … of hematological malignancies” value [12] was “(757th day)” and the Alive/dead [13] was “Alive”. The “Yes/No of recurrence of hematological malignancy” value [13] was “No”, the Alive/dead [14] was “Dead” and the “Yes/No of recurrence of hematological malignancy” value [14] was “Yes”. For the same compound, the “number of days of death” value [15] was “(110th day)”, the “number … of hematological malignancies” value [15] was “(110th day)” and the Alive/dead [16] was “Dead”. The “Yes/No of recurrence of hematological malignancy” value [16] was “Yes”, the “number of days of death” value [17] was “(326th day)” and the “number … of hematological malignancies” value [17] was “(252nd day)”. For the same compound, the Alive/dead [18] was “Alive”, the “Yes/No of recurrence of hematological malignancy” value [18] was “No” and the Alive/dead [19] was “Alive”. For the same compound, the “Yes/No of recurrence of hematological malignancy” value [19] was “No”, the Alive/dead [20] was “Alive” and the “Yes/No of recurrence of hematological malignancy” value [20] was “No”. For the same compound, the Alive/dead [21] was “Alive”, the “Yes/No of recurrence of hematological malignancy” value [21] was “Yes” and the “number … of hematological malignancies” value (Patient No. 17, Acute myeloid leukemia, KRP 3 mg + MTX + Tac, KRP 111 days) was “(98th day)”. For the same compound, the Alive/dead [22] was “Dead”, the “Yes/No of recurrence of hematological malignancy” value [22] was “Yes” and the “number of days of death” value [23] was “(310th day”. The “number … of hematological malignancies” value [23] was “(105th day)”, the Alive/dead [24] was “Alive” and the “Yes/No of recurrence of hematological malignancy” value [24] was “Yes”. The “number … of hematological malignancies” value (Patient No. 19, Acute myeloid leukemia, KRP 1 mg + MTX + CyA, KRP 24 days) was “(77th day)”, the Alive/dead [25] was “Alive” and the “Yes/No of recurrence of hematological malignancy” value [25] was “No”. The Alive/dead [26] was “Dead”, the “Yes/No of recurrence of hematological malignancy” value [26] was “Yes” and the “number of days of death” value [27] was “(79th day”. For the same compound, the “number … of hematological malignancies” value [27] was “(49th day)”, the Alive/dead [28] was “Dead” and the “Yes/No of recurrence of hematological malignancy” value [28] was “Yes”. The “number of days of death” value [29] was “(264th day”, the “number … of hematological malignancies” value [29] was “(121st day)” and the Alive/dead [30] was “Alive”. For the same compound, the “Yes/No of recurrence of hematological malignancy” value [30] was “No”, the “recurrence rate of hematologic malignancy one year after allogeneic hematopoietic stem cell transplantation” value [31] was 40% and the “survival rate of the patients one year after allogeneic hematopoietic stem cell transplantation” value [31] was 75%. The Recurrence rate (Acute lymphocytic leukemia, 4 patients) was 25%, the Survival rate (Acute lymphocytic leukemia, 4 patients, hydrochloride) was 75% and the Survival rate (Acute lymphocytic leukemia, 4 patients, listed as 2-amino-2-[4-(3-benzyloxyphenylthio)-2-chlorophenyl] ethyl-propane-1,3-diol, hydrochloride) was 75%. For the same compound, the Recurrence rate (Acute myeloid leukemia, 7 patients) was 43%, the Survival rate (Acute myeloid leukemia, 7 patients, hydrochloride) was 100% and the Survival rate (Acute myeloid leukemia, 7 patients, listed as 2-amino-2-[4-(3-benzyloxyphenylthio)-2-chlorophenyl] ethyl-propane-1,3-diol, hydrochloride) was 100%. For the same compound, the Recurrence rate (B-cell lymphoma, 1 patient) was 0%, the Survival rate (B-cell lymphoma, 1 patient) was 100% and the Recurrence rate [32] was 0%. The Survival rate [32] was 100%, the Recurrence rate [33] was 38% and the Survival rate [33] was 67%. For the same compound, the Recurrence rate [34] was 20%, the Survival rate [34] was 100% and the Recurrence rate [35] was 20%. It also gave a Survival rate [35] of 100%, a Recurrence rate [36] of 71% and a Survival rate [36] of 36%. The Recurrence rate (Multiple myeloma, 1 patient) was 0%, the Survival rate (Multiple myeloma, 1 patient) was 100% and the Recurrence rate [37] was 67%. The Survival rate [37] was 67%, the Recurrence rate (Myelofibrosis, 1 patient) was 100% and the Survival rate (Myelofibrosis, 1 patient) was 0%. For the same compound, the Recurrence rate [38] was 100%, the Survival rate [38] was 0% and the Recurrence rate (administration period 60 days or more, 19 patients) was 32%. For the same compound, the Survival rate (administration period 60 days or more, 19 patients, hydrochloride) was 77%, the Survival rate (administration period 60 days or more, 19 patients, listed as 2-amino-2-[4-(3-benzyloxyphenylthio)-2-chlorophenyl] ethyl-propane-1,3-diol, hydrochloride) was 77% and the Recurrence rate [39] was 24%. The Survival rate [39] was 86%, the Recurrence rate [40] was 24% and the Survival rate [40] was 86%. It also gave a Recurrence rate [41] of 20%, a Survival rate [41] of 84% and a Recurrence rate [42] of 20%. It also gave a Survival rate [42] of 84%.
